Source: patent US20200148803A1, “POLYMERIZABLE MULTIFUNCTIONAL ANTIMICROBIAL QUATERNARY AMMONIUM MONOMERS, METHODS OF SYNTHESIS, AND USES THEREOF” (ADA Foundation, priority 2018, published 2020)

Tests used:
CCL1 cells = test: Cellular metabolic activity (CellTiter AQueous One Solution Reagent), CCL1 cells; format: cell-based; conditions: for effect of monomer concentration on CCL1 metabolic activity: two-fold serial dilutions, 24 h and 72 h
[1] = Sessile drop water contact angle (CA) on resin pellets; format: physicochemical
Description: (§1) Experimental resin (UPE) was formulated from the commercially available monomers urethane dimethacrylate (UDMA, 50.91% w/w), polyethylene glycol extended urethane dimethacrylate (PEG-U, 18.18% w/w), and ethyl 2-(hydroxymethyl)acrylate (EHMA, 30.91% w/w). A conventional visible light initiator system comprised of camphorquinone (0.2% w/w) and ethyl-4-N,N-dimethylamino benzoate (4EDMAB, 0.8% w/w) was utilized. […] Copolymer specimens (beams) were prepared by depositing UPE (UPE resin control) and AM-UPE resins into glass molds (2 mm×2 mm×25 mm) and photopolymerizing them with a dental curing light (Triad 2000, Dentsply, Charlotte, N.C., USA) for 2 minutes from two sides. Copolymer specimens (pellets) were prepared by depositing UPE and AM-UPE resins into a stainless-steel mold (1 mm×16 mm), sandwiched between two sheets of Mylar film and two glass slides and photopolymerized in the same manner as the beam samples. Degree of vinyl conversion (DVC) of UPE and AM-UPE resins was determined utilizing beam samples by collecting the near infra-red (NIR) spectra (Nexus 670, ThermoFisher, Madison, Wis., USA) before and 24 h after polymerization and calculating the reduction in absorption band at 6165 cm^−1 corresponding to the vinyl (C═C—H) overtone signal. By maintaining a constant specimen thickness, a need for an invariant internal standard was eliminated. The DVC was calculated as: […]
(§2) where Area(polymer) and Area(monomer) correspond to the areas under 6165 cm^−1 peaks after and before the polymerization, respectively. After DVC analysis, flexural strength (FS) and elastic modulus (E) of beam specimen were determined employing the Universal Testing Machine (Instron 5500R, Instron Corp., Canton, Mass., USA). The load was applied (at cross-head speed of 1 mm/min) to the center of a specimen positioned on a test device with supports 20 mm apart. The FS and E of the specimens (three replicates/experimental group) was calculated as instructed in the ISO4049:2009 document. Changes in hydrophilicity/hydrophobicity of UPE resins due to the introduction of AM monomers were assessed on pellet specimen by sessile drop contact angle (CA) measurements (drop shape analyzer DSA100, Krüss GmbH, Hamburg, Germany). Following the deposition of 4 μL water droplets on the resin pellets, the pellets were imaged after 1 min resting time with a camera at the points of intersection (three-phase contact points) between the drop contour and the projection of the surface (baseline). The CA water values were calculated employing the Krüss Advance software. At least four repetitive measurements were performed in each group. Analysis of variance (ANOVA) and Newman-Keuls multiple paired comparisons (at 95% confidence level) were used to analyze the experimental data as a function of resin composition and establish a statistical significance of differences between the experimental groups (WINKS 7.0.9, TexaSoft, Cedar Hills, Tex., USA).

[2] = system: mouse subcutaneous connective tissue fibroblasts (NCTC clone 929, CCL1); test: Direct contact cytotoxicity, LIVE/DEAD viability, CCL1 cells; format: cell-based
[3] = system: human gingival fibroblasts (HGF); test: Cellular metabolic activity (CellTiter AQueous One Solution Reagent), HGF cells; format: cell-based; conditions: for effect on metabolic activity of HGF cells: two-fold serial dilutions, 24 h and 72 h
Description: (§3) Immortalized human gingival fibroblasts (HGF) were purchased from Applied Biological Materials, Inc. (Richmond, British Columbia, Canada). […] For experiments, cells were obtained from a subconfluent stock culture.
(§4) Direct contact cytotoxicity testing was conducted as previously described^7, 8. Briefly, cells were exposed to two-fold serial dilutions of AMadh series monomers or AMsil series monomers to approximate the maximum possible exposure, (Table 9). Table 9 illustrates biocompatibility testing using maximum possible monomer exposure (mmol/L), assuming 7% mass fraction in the restorative with a maximum of 2% leaching. To account for multiplicity and variable size of restorations, a two- and four-fold greater dilution was also included in the testing. After 24 and 72 h, cells were assessed for cell viability using the LIVE/DEAD® Viability/Cytotoxicity kit (Life Technologies, Corp., Grand Island, N.Y.). Cellular metabolic activity was subsequently assessed using the CellTiter® AQueous One Solution Reagent (Promega, Corp., Madison, Wis.). Negative controls were without the novel monomer and/or cells. Mean+standard error was obtained from five independent replicates tested in triplicate.

[4] = system: human gingival fibroblasts (HGF); test: Direct contact cytotoxicity, LIVE/DEAD viability, HGF cells; format: cell-based; conditions: for effect of monomer concentration on HGF cell viability: two-fold serial dilutions, 24 h and 72 h
Description: as §3, §4

[5] = Degree of vinyl conversion (DVC) by near infra-red spectra of copolymer beams; format: physicochemical
Description: as §1, §2

C=C(C)C(=O)OCC[N+](C)(C)CCCCCCCCCCC(=O)O.[Br-] [AMadh2, 10-carboxy-N-(2-(methacryloyloxy)ethyl)-N,N-dimethyldecan-1-aminium bromide]
CCL1 cell metabolic activity (CCL1 cells; 24 h, 8.8 mm/L): reduced
CCL1 cell metabolic activity (CCL1 cells; 72 h): markedly reduced
effect of monomer concentration on CCL1 metabolic activity (CCL1 cells): exerted an effect
effect on hydrophobic-hydrophilic properties of the copolymer ([1]; 10 mass percent in UPE resin): a shift towards the lower CA values
reduction of water CA relative to UPE resin control ([1]; 10 mass percent in UPE resin): 18 °
effect on hydrophobic-hydrophilic properties of the copolymer ([1]; 20 mass percent in UPE resin): did not alter the hydrophobic-hydrophilic properties
percentage of live CCL1 cells, fold lower compared to concentrations ≤4.4 mmol/L ([2]; 8.8 mmol/L, 72 h exposure): at least 10 fold
least squares mean of live CCL1 cells, fold lower than at lower concentrations ([2]; 8.8 mmol/L, independent of time): approx. 2 fold
percent live CCL1 cells compared to control group (no monomer) ([2]; ≤2.2 mmol/L (24 h) and ≤0.28 mmol/L (72 h)): increased
effect of concentration on the number of dead CCL1 cells ([2]; ≤8.8 mmol/L): not statistically different
time of exposure decreased HGF metabolic activity, difference of means ([3]; 24 h vs 72 h): 19.01
effect on metabolic activity of HGF cells [3]: not affected by the level of AMadh2
effect of exposure time on HGF live cells, difference of means ([4]; 24 h vs 72 h, regardless of concentration): ~16%
effect of monomer concentration on HGF cell viability [4]: no significant effect

C=C(C)C(=O)OCC[N+](C)(C)CCC[Si](OC)(OC)OC.[I-] [AMsil1, N-(2-(methacryloyloxy)ethyl)-N,N-dimethyl-3-(trimethoxysilyl)propan-1-aminium iodide]
effect of monomer concentration on CCL1 metabolic activity (CCL1 cells): did not affect
CA ([1]; 10 mass % monomer in UPE resin): 46.9±5.9 °
reduction of CA relative to UPE resin control ([1]; 10 mass % monomer in UPE resin): 23%
effect on hydrophobic-hydrophilic properties of the copolymer ([1]; 10 mass percent in UPE resin): a shift towards the lower CA values
effect on hydrophobic-hydrophilic properties of the copolymer ([1]; 20 mass percent in UPE resin): maintained the hydrophobic-hydrophilic balance
dead CCL1 cells ([2]; 0.07 mmol/L, 24 h): 128.0 ± 27.1 % Control
live CCL1 cells ([2]; 0.07 mmol/L, 24 h): 156.8 ± 21.4 % Control
dead CCL1 cells ([2]; 0.07 mmol/L, 72 h): 134.0 ± 36.5 % Control
live CCL1 cells ([2]; 0.07 mmol/L, 72 h): 122.5 ± 5.6 % Control
dead CCL1 cells ([2]; 0.13 mmol/L, 24 h): 85.1 ± 11.2 % Control
live CCL1 cells ([2]; 0.13 mmol/L, 24 h): 145.1 ± 14.8 % Control
dead CCL1 cells ([2]; 0.13 mmol/L, 72 h): 140.3 ± 32.7 % Control
live CCL1 cells ([2]; 0.13 mmol/L, 72 h): 122.1 ± 8.5 % Control
dead CCL1 cells ([2]; 0.26 mmol/L, 24 h): 96.8 ± 15.5 % Control
live CCL1 cells ([2]; 0.26 mmol/L, 24 h): 154.5 ± 25.0 % Control
live CCL1 cells ([2]; 0.26 mmol/L, 72 h): 108.9 ± 18.6 % Control
dead CCL1 cells ([2]; 0.52 mmol/L, 24 h): 117.4 ± 27.1 % Control
live CCL1 cells ([2]; 0.52 mmol/L, 24 h): 147.3 ± 20.3 % Control
dead CCL1 cells ([2]; 0.52 mmol/L, 72 h): 124.6 ± 22.9 % Control
live CCL1 cells ([2]; 0.52 mmol/L, 72 h): 122.9 ± 11.1 % Control
dead CCL1 cells ([2]; 1.04 mmol/L, 24 h): 96.0 ± 16.2 % Control
live CCL1 cells ([2]; 1.04 mmol/L, 24 h): 157.9 ± 18.8 % Control
dead CCL1 cells ([2]; 1.04 mmol/L, 72 h): 128.8 ± 20.2 % Control
live CCL1 cells ([2]; 1.04 mmol/L, 72 h): 142.0 ± 6.5 % Control
dead CCL1 cells ([2]; 2.09 mmol/L, 24 h): 86.1 ± 11.7 % Control
live CCL1 cells ([2]; 2.09 mmol/L, 24 h): 152.5 ± 20.3 % Control
dead CCL1 cells ([2]; 2.09 mmol/L, 72 h): 147.6 ± 38.5 % Control
live CCL1 cells ([2]; 2.09 mmol/L, 72 h): 136.0 ± 7.2 % Control
dead CCL1 cells ([2]; 4.17 mmol/L, 24 h): 85.8 ± 13.1 % Control
live CCL1 cells ([2]; 4.17 mmol/L, 24 h): 161.3 ± 15.2 % Control
dead CCL1 cells ([2]; 4.17 mmol/L, 72 h): 91.6 ± 13.7 % Control
live CCL1 cells ([2]; 4.17 mmol/L, 72 h): 132.1 ± 6.7 % Control
dead CCL1 cells ([2]; 8.34 mmol/L, 24 h): 93.0 ± 15.4 % Control
live CCL1 cells ([2]; 8.34 mmol/L, 24 h): 149.6 ± 37.4 % Control
dead CCL1 cells ([2]; 8.34 mmol/L, 72 h): 106.8 ± 7.4 % Control
live CCL1 cells ([2]; 8.34 mmol/L, 72 h): 110.8 ± 12.3 % Control
exposure time reduced the number of live CCL1 cells, fold difference of mean ([2]; 24 h vs 72 h): 1.2 fold
effect of monomer concentration on CCL1 cell viability ([2]; two-fold serial dilutions, 24 h and 72 h): did not exert a statistical effect
effect on metabolic activity of HGF cells [3]: did not statistically affect the metabolic activity
reduction of DVC relative to UPE resin control ([5]; 10 mass percent in UPE resin): approximately 27%
reduction of DVC relative to UPE resin control ([5]; 20 mass percent in UPE resin): ~17%
exposure time reduced HGF viability, difference of means ([4]; 24 h vs 72 h, independent of concentration): 19.73
number of live HGFs ([4]; lower concentrations (≤0.13 mmol/L)): decreased
effect of monomer concentration on HGF cell viability [4]: exerted a main effect
